# Measurements reported in patent US11466027B2, “Modulators of the NMDA receptor” (H. Lundbeck A/S, priority 2019, dated 2022).
# Where two headings read alike, the source gives them in different places.
# How the values were obtained:
# [1] = In vivo exposure (brain disposition) after intravenous bolus injection; parameters: species or system male Sprague Dawley rats; details: male, Sprague-Dawley, rat, 2 mg/kg intravenous bolus, 30 min post dose
# Experimental: Brain disposition of test compound was evaluated in male Sprague Dawley rats (standard body weight range). Briefly, discrete (nominal dose: 2 mg/kg, 2 ml/kg) or cassetted (nominal dose: 1 mg/kg/compound, 2 ml/kg) test compounds were administered by intravenous bolus injection (formulated in 10% hydroxypropyl-β-cyclodextrin or 10-20% Captisol, pH=3).
# Serial blood samples were collected from a lateral tail vein at designated time points (n=3 per time point) then rats were put under deep isoflurane induced anesthesia prior to removal of brains (n=3 per time point). Blood was collected into K3-EDTA-coated tubes and the samples were gently turned upside-down to ensure a homogenous sample. The tubes were centrifuged at 3300×g for 10 min. at max 4° C. and plasma samples were transferred to Micronic tubes. […]
# Seven calibration standards and three QC samples were prepared in plasma and brain homogenate, respectively, in the concentration range 10-10000 ng/mL. […] Study samples with expected concentration above upper limit of quantification were diluted with blank matrix. […]
# Samples were analyzed using an AB Sciex API4000 triple quadrupole (TQ) mass spectrometer operated in positive and negative electrospray ionization and MS/MS mode (multiple reaction monitoring, MRM). […] Quantification was performed by linear regression, 1/x2 weighting.
# [2] = Microdialysis studies in rats (ventral hippocampus); assay type: in vivo, Male Sprague-Dawley rats; details: 30 mg/kg subcutaneously, FIG. 2
# Experimental: Male Sprague-Dawley rats, initially weighing 275-300 g, were used. The animals were housed under a 12-hr light/dark cycle under controlled conditions for regular in-door temperature (21±2° C.) and humidity (55±5%) with food and tap water available ad libitum.
# Rats were anaesthetised with hypnorm/dormicum (2 ml/kg) and intracerebral guide cannulas.
# (CMA/12) were stereotaxically implanted into the brain, aiming to position the dialysis probe tip in the ventral hippocampus (co-ordinates: 5.6 mm posterior to bregma, lateral −4.8 mm, 7.0 mm ventral to dura. Anchor screws and acrylic cement were used for fixation of the guide cannulas. The body temperature of the animals was monitored by rectal probe and maintained at 37° C. The rats were allowed to recover from surgery for 2 days, housed singly in cages.
# On the day of the experiment a microdialysis probe (CMA/12, 0.5 mm diameter, 3 mm length) was inserted through the guide cannula. The probe was connected via a dual channel swivel to a microinjection pump. Perfusion of the microdialysis probe with filtered Ringer solution (145 mm NaCl, 3 mM KCl, 1 mM MgCl2, 1.2 mM CaCl2) was begun shortly before insertion of the probe into the brain and continued for the duration of the experiment at a constant flow rate of 1 μl/min. After 180 min of stabilisation, the experiments were initiated. […]
# [3] = test system: High Frequency Oscillations (HFO) in the nucleus accumbens; test: Resting state electroencephalography (rsEEG) in rats; assay type: in vivo; details: rat, 20 mg/kg, vs 10% captisol, FIG. 1
# Experimental: On the day of surgery, rats (270-300 g) were anesthetized with a 0.25 ml/100 g subcutaneous (SC) injection of 1:1 hypnorm/Dormicum and mounted in a stereotaxic frame (David Kopf Instruments, Tujunga, Calif., USA) with blunt ear bars. Marcain (0.2 ml SC) was injected under the scalp, and gel (Neutral Opthta Eye Gel) put on the eyes to prevent the mucous membrane drying out. Holes were burred in the skull to allow for placement of three depth electrodes (E363-series; PlasticsOne, Roanoke, Va., USA) in medial prefrontal cortex (mPFC) (AP: 3.0 mm from the bregma suture, ML: −0.7 mm from the sagittal suture and DV: 3.0 mm from the dura), Nucleus accumbens (NAc): (AP+1.6 mm from the bregma suture, ML: −1.0 mm from the sagittal suture, DV: −6.7 mm from the dura) and thalamus (AP: −2.8 mm from the bregma suture, ML: +0.7 mm from the sagittal suture and DV: 4.4 mm from the dura) and three screw electrodes above the auditory cortex (A1) (AP: −4.8 mm from the bregma suture, ML: +6.4 mm from the sagittal suture), a reference electrode (AP: +8.0 mm and ML: −2.0 mm), and a ground electrode (AP: −5 mm, ML: +5 mm). […] Animal bodyweights were recorded daily. […]
# Rats were handled daily and habituated to recording box the week before recording sessions. […] The analysis of the locomotor behaviour was based on the recorded accelerometer signal. […]
# [4] = biological target: NR1s1s2 (ligand binding domains of the NMDA receptor), glycine site (Rattus norvegicus, UniProt P35439); test: Scintillation Proximity Assay (SPA), displacement of [3H]-MDL-105,519; details: radioligand used in SPA
# Source text: Scintillation Proximity Assay (SPA):
# Normalized data are used to calculate Ki values.
"concentration at 30 min ([1]; brain, read-out: Total Brain concentration (ng/mL) 30 min post dose) [ng/mL]","concentration at 30 min ([1]; plasma, read-out: Total Plasma concentration (ng/mL) 30 min post dose) [ng/mL]",Extracellular levels in the rat ventral hippocampus after systemic administration [2],Compound,Effect in rsEEG (High Frequency Oscillations in the nucleus accumbens) compared to vehicle [3],Kd [4] [nM]
8.4,270,considerable extracellular levels,"Cc1ccnc2cc(C(=O)NC[C@@H](N)C(=O)O)sc12 [Compound 1e, (R)-2-amino-3-[(7-methylthieno[3,2-b]pyridine-2-carbonyl)amino]propanoic acid]",clear effect,
,,,"O=C(O)C(=Cc1c(C(=O)O)[nH]c2cc(Cl)cc(Cl)c12)c1ccccc1 [[^3H]-MDL-105,519]",,1.3
